{"source": "patent US9034863B2", "about": "“Compositions and methods for inhibiting entry of a hepatic virus” (The Board of Trustees of the University of Illinois, priority 2008, dated 2015)", "test_system": "HCVcc JFH-1", "assay": "Chronic HCVcc infection in growing Huh7 cells, long-term treatment, RT-qPCR (FIG. 2)", "format": "cell-based, Hepatitis C virus (HCV)", "settings": "alone, throughout ~70 days of treatment", "procedure": "Cultures of growing Huh7 cells were inoculated with HCVcc JFH-1 at an MOT of 0.01 FFU/cell. Infected cultures were maintained for an additional 10 days to allow HCV RNA to reach steady-state levels. FIG. 2A, Cultures were mock treated, treated with ezetimibe alone (30 μM), IFN-α (100 U/ml) alone, or ezetimibe (30 μM) plus IFN-α (100 U/ml) in combination. Treatments were maintained as cultures were passaged. FIG. 2B, After 70 days IFN-α or combination ezetimibe plus IFN-α treatment, treatment was either continued (open shapes) or discontinued (filled shapes). […] Results are graphed as means±s.e.m. for triplicate samples. The data presented are representative of two independent experiments.\nFor experiments in growing cells, Huh7 cells seeded at 1×10^6 cells in a T75 cell culture flask (Corning) were infected with JFH-1 HCVcc at a MOI of 0.01 FFU/cell and subsequently cultured for 10 days to allow HCV RNA to reach steady-state levels. On day 10 post-infection, cells were split 1:4 and re-plated into T25 culture flasks (Corning). Twenty four hours post seeding, individual flasks were mock-treated with cDMEM or treated with cDMEM containing IFN-α (100 U/ml), ezetimibe (30 μM) or a combination of both IFN-α (100 U/ml) and ezetimibe (30 μM). Throughout the course of the experiment, fresh media with treatments was replenished every two days and cells were trypsinized just before reaching confluence and re-plated at a dilution of 1:3 to maintain active cell growth. […]\nTotal cellular RNA was purified using an ABI PRISM™ 6100 Nucleic Acid PrepStation (Applied Biosystems), as per the manufacturer's instructions. […] HCV JFH-1 and human GAPDH RNA transcript levels were determined relative to a standard curve derived from serial dilutions of plasmid containing the JFH-1 HCV cDNA or the human GAPDH coding sequence, respectively. […]\nTo confirm HCV clearance, drug treatments were subsequently discontinued on day 70 and HCV RNA levels were monitored for an additional 30 days.", "data": [{"smiles": "O=C1[C@H](CC[C@H](O)c2ccc(F)cc2)[C@@H](c2ccc(O)cc2)N1c1ccc(F)cc1", "note": "[ezetimibe, 1-(4-fluorophenyl)-(3R)-[3-(4-fluorophenyl)-(3S)-hydroxypropyl]-(45)-(4-hydroxyphenyl)-2-azetidinone]", "values": [{"measurement": "intracellular HCV steady-state RNA levels", "result": "did not reduce"}]}]}
